Assay results reported in US9447047B2 (priority 2012, dated 2016).
pIC50: −log10 of the molar value. Entries after “also recorded” stand apart in the source; their conditions may differ. Like-named read-outs stand apart in the source and are kept apart here.

How the values were obtained:
EBOV-eGFP = type: cell-based
EBOV VP30 = type: cell-based
[1] = test system: Tat-driven nuclear localization of PP1α; type: cell-based
CEM cells [2] = assay: cells; conditions: Homo sapiens, CCRF-CEM; for pIC50: read-out: Toxicity in CEM cells, IC50; for IC50: read-out: Toxicity in CEM cells, (IC50, μM)
[3] = test system: Tat-induced HIV transcription in 293T cells; assay: Tat-induced HIV transcription in 293T cells transfected with HIV-1 LTR reporter and Tat vectors; type: cell-based
HIV-1 = assay: Inhibition of HIV-1 replication; type: cell-based
[4] = Control cell viability assays (FIG. 18)
EBOV transcription = type: cell-based
PP1α = PP1α (Homo sapiens, UniProt P62136); assay: Dephosphorylation of generic KT(pT)IRR peptide by recombinant PP1α (malachite green); type: biochemical
Chain of PP1α (P62136 whole entry): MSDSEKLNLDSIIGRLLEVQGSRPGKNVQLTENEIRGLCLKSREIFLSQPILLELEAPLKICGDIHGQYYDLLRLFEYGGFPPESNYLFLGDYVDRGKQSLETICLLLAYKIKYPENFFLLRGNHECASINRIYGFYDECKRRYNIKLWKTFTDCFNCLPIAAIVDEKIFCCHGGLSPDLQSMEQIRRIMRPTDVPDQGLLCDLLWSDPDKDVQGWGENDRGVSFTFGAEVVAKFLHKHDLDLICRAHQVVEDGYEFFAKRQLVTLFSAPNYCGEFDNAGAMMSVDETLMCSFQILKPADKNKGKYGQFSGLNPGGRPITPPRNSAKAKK

CEM cells [5] = test system: CEM cells
[6] = molecular target: PP1 association with NIPP1, PNUTS and Tat (Homo sapiens, UniProt P62136); type: cell-based
Chain of PP1 association with NIPP1, PNUTS and Tat (P62136 2-330 limits assumed): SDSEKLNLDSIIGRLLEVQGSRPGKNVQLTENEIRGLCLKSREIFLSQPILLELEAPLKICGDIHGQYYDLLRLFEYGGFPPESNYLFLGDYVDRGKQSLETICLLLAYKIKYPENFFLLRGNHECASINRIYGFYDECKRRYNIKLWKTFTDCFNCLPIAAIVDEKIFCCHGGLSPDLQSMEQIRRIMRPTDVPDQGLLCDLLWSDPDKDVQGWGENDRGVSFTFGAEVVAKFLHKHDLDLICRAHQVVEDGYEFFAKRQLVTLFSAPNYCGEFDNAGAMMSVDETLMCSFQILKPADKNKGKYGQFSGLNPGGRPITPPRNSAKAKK

293T cells = assay: Global cellular proteome of 293T cells by LC-MS-MS; conditions: 10 μM for 18 h
[7] = test system: HIV-1 transcription in CEM-GFP cells; assay: Tat-dependent HIV-1 transcription LTR-GFP reporter assay in CEM-GFP cells infected with Ad-Tat; type: cell-based; conditions: for IC50: Human immunodeficiency virus 1, CEM-GFP, 48 h, read-out: Inhibition of HIV-1 Transcription in CEM-GFP cells (IC50, μM)
[8] = test system: interaction of Tat with PP1α; type: cell-based; conditions: 10 μM, 293T cells
[9] = Human immunodeficiency virus 1; read-out: 50% Inhibition of HIV-1 replication

For CCNC(=O)NC(=O)C(C)OC(=O)c1c2c(nc3ccccc13)/C(=C/c1ccc(OC)c(OC)c1)CC2 (stereo not drawn) [1E7-03], the “inhibition of EBOV replication” value (EBOV-eGFP) was “completely suppressed”, the “VP30 phosphorylation” value (EBOV VP30) was “increased” and the “increase of VP30 phosphorylation” value (EBOV VP30) was 2.7 fold. The “translocation of Tat and PP1 into the nucleus” value ([1]; fluorescence in nucleus and cytoplasm fractions) was “inhibited”, the pIC50 (CEM cells [2]) was less than 4.70 and the “toxicity” value (Vero-E6 cells) was “without any detectable cytotoxicity”. The “potency in HIV-1 transcription inhibition in 293T cells (comparison)” value [3] was “equally potent as 1E7”, the “HIV-1 inhibition” value (HIV-1; FIG. 18) was “potent HIV-1 inhibitor” and the pIC50 (HIV-1; [9]) was 5.52. The “cell viability” value [4] was “maintains the most viability” and the “EBOV transcription” value (EBOV transcription) was “inhibits EBOV transcription”.
With CCNC(=O)NC(=O)C(C)OC(=O)c1c2c(nc3ccccc13)/C(=C\c1cccs1)CCC2 (stereo not drawn) [1E7-04] the “inhibition of EBOV replication” value (EBOV-eGFP) was “highly potent”, the pIC50 (CEM cells [2]) was 5.15 and the “toxicity” value (Vero-E6 cells) was “some toxicity”. For the same molecule, the “toxicity (cell monolayer, words)” value (Vero-E6 cells) was “visible toxicity” and the pIC50 (HIV-1; [9]) was 5.52.
In the case of CC(OC(=O)c1c2c(nc3ccccc13)/C(=C/c1cccs1)CCC2)C(=O)NC1CC1 (stereo not drawn) [1E7-05], the “inhibition of EBOV replication” value (EBOV-eGFP) was “highly potent”, the “toxicity” value (Vero-E6 cells) was “some toxicity” and the “toxicity (cell monolayer, words)” value (Vero-E6 cells) was “visible toxicity”.
For COCCNC(=O)OC(=O)c1c2c(nc3ccccc13)/C(=C\c1ccc(O)cc1)CCC2 [1H4], the “effect on PP1 enzymatic activity (Vmax and Km, KT(pT)IRR peptide)” value (PP1α) was “minimal effect; also recorded: no effect”, the “initial velocity V0 of KT(pT)IRR peptide dephosphorylation by PP1α” value (PP1α; 1H4 300 μM, without compound V0=1.4) was 1.3 μM·min^−1 and the “cytotoxicity / toxicity in T cells” value (CEM cells [5]) was “not cytotoxic”. For the same molecule, the “nuclear PP1α-EGFP fluorescence” value ([1]; 293T cells, nuclear fraction, vs untreated or 1G3) was “significant decrease”, the “nuclear localization of PP1α in the presence of Tat” value ([1]; HeLa cells, 10 μM, 18 hours) was “drastically diminished; also recorded: disrupts” and the IC50 (CEM cells [2]) was greater than 25 µM. The pIC50 (CEM cells [2]) was 4.52, the “Tat association with PP1 (microcystin precipitation)” value [6] was “reduced” and the “interaction of PP1 with PNUTS or NIPP1” value [6] was “without any effect; also recorded: no effect”. For the same molecule, the “effect on cellular proteome” value (293T cells) was “did not significantly change”, the pIC50 ([3]; Human immunodeficiency virus 1, HEK-293T, read-out: Inhibition Tat-induced HIV transcription in 293T cells, IC50) was 5.30 and the pIC50 (HIV-1; Human immunodeficiency virus 1, read-out: 50% Inhibition of HIV-1 replication) was 5.00. For the same molecule, the IC50 [7] was 12.5 µM, the pIC50 ([7]; Human immunodeficiency virus 1, read-out: Inhibition Tat-induced HIV transcription in CEM cells, IC50) was 5.00 and the “PP1α-EGFP co-precipitated with Tat” value [8] was “reduced; also recorded: prevents the interaction”. For the same molecule, the “association of Tat with CDK9/cyclin T1” value [8] was “no effect”.
CCC(c1nnc(SCC(=O)Nc2ncc(-c3ccc(F)cc3)s2)n1Cc1ccccc1)N(C)C (stereo not drawn) [T5251659] showed an IC50 (CEM cells [2]) of 6 µM and an IC50 [7] of 10 µM.
CCN(CC)S(=O)(=O)c1ccc2c(c1)nc(CCC(=O)N(C)c1ccc(C(F)(F)F)cc1)n2C [T5326526] showed an IC50 (CEM cells [2]) of 10 µM and an IC50 [7] of 15 µM.
For CC(OC(=O)c1ccccc1SCC(=O)Nc1ccc2c(c1)OCO2)C(=O)NCCC1=CCCCC1 (stereo not drawn) [T5369370], the IC50 (CEM cells [2]) was 15 µM and the IC50 [7] was 10 µM.
With O=S(=O)(Nc1ccc(S(=O)(=O)N2CCC(Cc3ccccc3)CC2)cn1)c1ccccc1 [T5481237] the IC50 (CEM cells [2]) was 20 µM and the IC50 [7] was 15 µM.
Molecule O=C(CNC(=O)c1ccccc1SCC(=O)NC12CC3CC(CC(C3)C1)C2)Nc1ccc(Cl)cc1 [T5498680] has an IC50 (CEM cells [2]) of 5 µM and an IC50 [7] of 5 µM.
In the case of CN(C1CCCCC1)S(=O)(=O)c1ccc(NC(=O)COc2ccccc2-c2ccccc2)cc1 [T5551920], the IC50 (CEM cells [2]) was 15 µM and the IC50 [7] was 15 µM.
For C=C1[C@@H](O)[C@@H]2O[C@]3(CC[C@H](/C=C/[C@@H](C)[C@@H]4CC(C)=C[C@@]5(O[C@H](C[C@@](C)(O)C(=O)O)CC[C@H]5O)O4)O3)CC[C@H]2O[C@@H]1[C@@H](O)C[C@H](C)[C@H]1O[C@@]2(CCCCO2)CC[C@H]1C [okadaic acid, reference compound], the “VP30 phosphorylation” value (EBOV VP30) was “increased”.
